Results as given in patent US20250000854A1, “4-(Aminomethyl)-6-(1-Methyl-1H-Pyrazol-4-YL)Isoquinolin-1(2H)-One Derivatives as MTA-Cooperative Inhibitors of PRMT5” (BeiGene, Ltd., priority 2022, published 2025).
Structures can show the parent of a compound that is named as a salt.

How the values were obtained:
human PRMT5/MEP50 enzyme [1] = biological target: T1, human PRMT5/MEP50 enzyme (Homo sapiens (Human), UniProt O14744); assay: PRMT5 Biochemical Assay (TR-FRET) in the presence of MTA; conditions: with 800 nM MTA; 10 nM PRMT5/MEP50, 3 μM S-adenosylmethionine, histone H4 peptide
Procedure: (§1) The assay measures the methylation activity of purified human PRMT5/MEP50 enzyme toward histone H4-R3. Compounds disclosed herein were tested for inhibition of PRMT5/MEP50 using PRMT5 TR-FRET Assay Kit (BPS Bioscience) which contains a highly specific antibody that recognizes methylated substrates. The assay was carried out in 384-well low volume black plates in a reaction mixture containing 10 nM PRMT5/MEP50 complex, biotinylated histone H4 peptide, 3 μM S-adenosylmethionine and 0-10 μM compound in buffer containing 50 mM Tris-HCl buffer (pH 8.5), 0.005% BSA, 1 mM TCEP and 0.002% Tween-20. The PRMT5/MEP50 enzyme was incubated with compounds disclosed herein and biotinylated histone H4 peptide for 20 minutes at room temperature. The reaction was initiated by addition of S-adenosylmethionine. After reacting at room temperature for 120 minutes, the detection solution containing Eu-labeled antibody and dye-labeled acceptor in detection buffer was added to the reaction mixture. Plates were sealed and incubated at room temperature for 60 minutes, and the TR-FRET signals (excitation 337 nm, emission 665/620 nm) were recorded on a PHERAstar FSX plate reader (BMG Labtech). The inhibition percentage of PRMT5/MEP50 activity in presence of increasing concentrations of compounds was calculated based on the ratio of fluorescence at 665 nm to that at 620 nm. The IC50 value for each compound was derived from fitting the dose-response % inhibition data to the four-parameter logistic model by Dotmatics. And the compounds were tested in the presence and absence of MTA to evaluate whether the compounds display MTA-cooperative activity.

human PRMT5/MEP50 enzyme [2] = biological target: T1, human PRMT5/MEP50 enzyme; assay: PRMT5 Biochemical Assay (TR-FRET) in the absence of MTA; conditions: without MTA; 10 nM PRMT5/MEP50, 3 μM S-adenosylmethionine, histone H4 peptide
Procedure: as §1

T1 sequence (O14744 whole entry): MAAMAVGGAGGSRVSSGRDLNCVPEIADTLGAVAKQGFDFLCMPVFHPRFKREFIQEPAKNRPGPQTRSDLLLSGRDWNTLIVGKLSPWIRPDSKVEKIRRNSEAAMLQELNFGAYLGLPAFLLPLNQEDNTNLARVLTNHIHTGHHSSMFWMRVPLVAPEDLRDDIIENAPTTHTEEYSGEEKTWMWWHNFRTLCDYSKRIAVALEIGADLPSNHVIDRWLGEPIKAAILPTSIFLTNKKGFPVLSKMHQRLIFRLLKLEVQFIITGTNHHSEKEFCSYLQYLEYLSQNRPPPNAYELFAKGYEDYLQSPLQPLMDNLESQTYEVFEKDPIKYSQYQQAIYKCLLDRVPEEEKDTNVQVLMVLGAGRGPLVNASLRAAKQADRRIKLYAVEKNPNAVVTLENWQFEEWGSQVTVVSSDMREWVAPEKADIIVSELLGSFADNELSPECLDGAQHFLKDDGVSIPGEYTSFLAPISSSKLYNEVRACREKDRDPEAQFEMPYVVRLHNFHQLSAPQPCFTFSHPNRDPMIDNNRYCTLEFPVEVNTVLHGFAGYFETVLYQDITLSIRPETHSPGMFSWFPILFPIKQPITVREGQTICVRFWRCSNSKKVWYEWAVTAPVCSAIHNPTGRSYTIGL
T1 sequence (Q9BQA1 whole entry partner): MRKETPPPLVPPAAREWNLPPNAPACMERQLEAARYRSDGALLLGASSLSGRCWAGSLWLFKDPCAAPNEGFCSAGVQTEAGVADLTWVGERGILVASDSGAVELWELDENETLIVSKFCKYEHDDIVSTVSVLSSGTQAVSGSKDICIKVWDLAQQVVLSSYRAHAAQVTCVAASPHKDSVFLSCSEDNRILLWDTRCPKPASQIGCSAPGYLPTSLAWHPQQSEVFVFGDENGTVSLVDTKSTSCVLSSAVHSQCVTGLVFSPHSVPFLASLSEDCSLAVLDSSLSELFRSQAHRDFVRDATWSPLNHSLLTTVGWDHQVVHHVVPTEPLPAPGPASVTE

SMILES	IC50 (human PRMT5/MEP50 enzyme [1])	IC50 (human PRMT5/MEP50 enzyme [2])
Cn1ncc(-c2ccc3c(=O)[nH]cc(CN)c3c2)c1-c1c(F)cc2ccccc2c1C#N [Example 1, 2-(4-(4-(aminomethyl)-1-oxo-1,2-dihydroisoquinolin-6-yl)-1-methyl-1H-pyrazol-5-yl)-3-fluoro-1-naphthonitrile]	3.2 nM	29 nM
Cn1ncc(-c2ccc3c(=O)[nH]cc(CN)c3c2)c1-c1cc(Cl)cc(OC2CC2)c1C#N [Example 2, 2-(4-(4-(aminomethyl)-1-oxo-1,2-dihydroisoquinolin-6-yl)-1-methyl-1H-pyrazol-5-yl)-4-chloro-6-cyclopropoxybenzonitrile hydrochloride]	3.3 nM	77 nM
Cn1ncc(-c2ccc3c(=O)[nH]cc(CN)c3c2)c1-c1c(F)c(Cl)cc(OC2CC2)c1C#N [Example 3, 2-(4-(4-(aminomethyl)-1-oxo-1,2-dihydroisoquinolin-6-yl)-1-methyl-1H-pyrazol-5-yl)-4-chloro-6-cyclopropoxy-3-fluorobenzonitrile hydrochloride]	7.6 nM	68 nM
Cc1cc(-c2c(-c3ccc4c(=O)[nH]cc(CN)c4c3)cnn2C)c(C#N)c2ccccc12 [Example 4, 2-(4-(4-(aminomethyl)-1-oxo-1,2-dihydroisoquinolin-6-yl)-1-methyl-1H-pyrazol-5-yl)-4-methyl-1-naphthonitrile hydrochloride]	2.7 nM	29 nM
Cn1ncc(-c2ccc3c(=O)[nH]cc(CN)c3c2)c1-c1cc(Cl)c2ccccc2c1C#N [Example 5, 2-(4-(4-(aminomethyl)-1-oxo-1,2-dihydroisoquinolin-6-yl)-1-methyl-1H-pyrazol-5-yl)-4-chloro-1-naphthonitrile hydrochloride]	2.7 nM	27 nM
Cn1ncc(-c2ccc3c(=O)[nH]cc(CN)c3c2)c1-c1cccc(OC2CC2)c1C#N [Example 6, 2-(4-(4-(aminomethyl)-1-oxo-1,2-dihydroisoquinolin-6-yl)-1-methyl-1H-pyrazol-5-yl)-6-cyclopropoxybenzonitrile hydrochloride]	3.5 nM	87 nM
Cn1ncc(-c2ccc3c(=O)[nH]cc(CN)c3c2)c1-c1cc(C(F)(F)F)cc(OC2CC2)c1C#N [Example 7, 2-(4-(4-(aminomethyl)-1-oxo-1,2-dihydroisoquinolin-6-yl)-1-methyl-1H-pyrazol-5-yl)-6-cyclopropoxy-4-(trifluoromethyl)benzonitrile hydrochloride]	6.2 nM	165 nM
